Where two headings read alike, the source gives them in different places.
Legend:
[1] = tested on: BaF3 cells expressing EGFR L858R-T790M-L718Q; assay: Ba/F3 EGFR cell viability (CellTiter-Glo), L858R-T790M-L718Q; type: cell-based; settings: Mus musculus, read-out: CTGlo (GI50)
From the text: (§1) RPMI 1640 media, cell culture flasks, and 384-well microplates were purchased from VWR (Radnor, PA, USA). Fetal bovine serum (FBS) was purchased from Life Technologies (Carlsbad, CA, USA) and CellTiter-Glo® was purchased from Promega (Madison, WI, USA). The Ba/F3 parental cell line was purchased from CrownBio (Santa Clara, CA). BaF3 cell lines ectopically expressing the EGFR mutations L858R, L858R-T790M, L858R-C797S, and L858R-T790M-C797S were purchased from CrownBio and EGFR mutations L858R-L718Q, L858R-T790M-L718Q, L858R-L792H, and L858R-T790M-L792H, were purchased from Signosis (Santa Clara, CA).
(§2) Cell viability was assessed based on the quantification of ATP using the CellTiter-Glo® assay (Promega, Madison, WI, USA). To determine the effect of compounds on cell viability, all Ba/F3 cell lines were plated at a cell density of 2000 cells/well in 384-well plates using RPMI 1640+10% FBS and treated with compounds of interest using a 10-point half-log dilution series in duplicate for 72 hours, with the highest dose set at […]. CellTiter-Glo® reagent was then added and luminescence signals were measured using an EnVision™ Multimode plate reader (Perkin Elmer, Santa Clara, CA). For data normalization, cells untreated with the test compounds at Time=72 hours were set to 100% (equivalent to maximal cell growth after 72 hours); cells untreated with the test compounds at Time=0 hours were set to 0% (equivalent to cytostasis); and media-only wells were set to −100% (equivalent to complete cytotoxicity). % Viability was determined by normalizing the signal with positive and DMSO treated negative controls on the same microtiter plate. The half-maximal inhibition of cell growth (GI50) is computed from where the fitted curve crosses 50% while the half-maximal lethal dose (LD50) is computed from where the fitted curve crosses −50%.

[2] = tested on: BaF3 cells expressing EGFR L858R-T790M-L792H; assay: Ba/F3 EGFR cell viability (CellTiter-Glo), L858R-T790M-L792H; type: cell-based; settings: Mus musculus, read-out: CTGlo (GI50)
From the text: as §1, §2

[3] = molecular target: T1, pY1068 EGFR L858R-T790M-C797S (Homo sapiens, UniProt P00533, C797S/L858R/T790M); assay: Phospho-EGFR (pY1068) inhibition HTRF, NCI-H1975+CS; type: cell-based; settings: 6 hours, read-out: pEGFR IC50
T1 construct: generated using CRISPR technology to introduce the additional C797S mutation by Horizon Discovery; host or cells: NCI-H1975+CS (CRISPR knock-in of C797S)
T1 sequence (P00533 25-1210 T790M/C797S/L858R): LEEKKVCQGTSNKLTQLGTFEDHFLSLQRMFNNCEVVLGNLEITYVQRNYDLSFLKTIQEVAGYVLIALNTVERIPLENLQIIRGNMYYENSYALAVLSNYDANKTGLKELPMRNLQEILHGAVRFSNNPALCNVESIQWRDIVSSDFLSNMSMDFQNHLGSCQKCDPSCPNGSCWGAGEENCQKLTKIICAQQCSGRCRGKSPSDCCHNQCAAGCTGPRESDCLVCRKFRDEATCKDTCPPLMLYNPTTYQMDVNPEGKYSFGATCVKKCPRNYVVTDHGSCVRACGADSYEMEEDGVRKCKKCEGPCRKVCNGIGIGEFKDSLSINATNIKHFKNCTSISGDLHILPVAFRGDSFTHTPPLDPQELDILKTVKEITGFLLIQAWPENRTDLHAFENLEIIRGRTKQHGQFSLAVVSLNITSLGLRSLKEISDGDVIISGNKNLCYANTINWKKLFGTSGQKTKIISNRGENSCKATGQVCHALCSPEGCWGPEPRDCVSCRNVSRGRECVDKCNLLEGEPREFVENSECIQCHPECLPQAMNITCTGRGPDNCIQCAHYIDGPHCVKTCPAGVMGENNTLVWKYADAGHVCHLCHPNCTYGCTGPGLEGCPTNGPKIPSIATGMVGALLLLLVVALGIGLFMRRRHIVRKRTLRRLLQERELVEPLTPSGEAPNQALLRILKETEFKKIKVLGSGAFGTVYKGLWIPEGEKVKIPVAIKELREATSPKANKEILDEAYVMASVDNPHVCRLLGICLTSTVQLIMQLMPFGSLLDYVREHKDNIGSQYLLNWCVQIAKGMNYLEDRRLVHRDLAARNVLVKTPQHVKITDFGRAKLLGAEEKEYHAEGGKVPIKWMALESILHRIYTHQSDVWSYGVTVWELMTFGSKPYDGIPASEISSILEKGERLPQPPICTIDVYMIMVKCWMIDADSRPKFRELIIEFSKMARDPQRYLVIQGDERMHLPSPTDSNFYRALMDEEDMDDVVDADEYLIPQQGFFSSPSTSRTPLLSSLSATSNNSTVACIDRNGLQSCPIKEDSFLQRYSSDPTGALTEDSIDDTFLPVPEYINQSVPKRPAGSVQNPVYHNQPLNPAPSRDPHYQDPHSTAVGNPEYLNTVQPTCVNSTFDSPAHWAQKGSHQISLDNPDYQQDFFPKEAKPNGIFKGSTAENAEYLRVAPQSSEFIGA
From the text: NCI-H1975 (harboring EGFR heterozygous L858R-T790M mutations) and NCI-H3255 (harboring EGFR heterozygous L858R mutation) were purchased from ATCC and NCI, respectively. NCI-H1975+CS (harboring EGFR heterozygous L858R-T790M-C797S mutations) was generated using CRISPR technology to introduce the additional C797S mutation by Horizon Discovery. A431 (harboring EGFR wildtype) was purchased from ATCC. RPMI 1640 no-phenol red medium and fetal bovine serum (FBS) were purchased from Gibco (Grand Island, NY, USA). Cell culture flasks and 384-well microplates were acquired from VWR (Radnor, PA, USA). Phosphorylated (pY1068) EGFR and Total EGFR (using L858R-specific detection antibody and pan-EGFR antibody for EGFR mutant cell lines and EGFR wild-type cell lines, respectively) HTRF assay kits were purchased from Cisbio (Bedford, MA, USA).
Degradation of EGFR protein containing L858R mutation or wild-type was determined based on quantification of FRET signal using a Total EGFR (L858R-specific or pan-EGFR detecting) HTRF assay kit. Phospho-EGFR (pEGFR) inhibition was determined based on quantification of FRET signal using a pY1068 EGFR HTRF assay kit. In separate assay plates, test compounds were added to the 384-well plate from a top concentration of 10 μM with 11 points, half log titration in duplicates. For each assay, 12.5 uL of cells suspended in assay media (RPMI 1640 no-phenol red medium+10% FBS) at cell densities indicated for each cell line in Table 8 below were dispensed using a multi-channel pipette to 384-well low volume white HTRF microplates containing a duplicate concentration range of test compounds and DMSO controls. The plates were kept at 37° C. with 5% CO2 for 6 hours and then incubated with either phospho EGFR or Total EGFR HTRF detection antibodies according to the cell line and EGFR mutant being assayed. Cells treated in the absence of the test compound were the negative control. Positive control was set by wells containing all reagents but no cells. FRET signal was acquired on EnVision™ Multilabel Reader (PerkinElmer, Santa Clara, CA, USA). Compound concentration that achieves 50% degradation and inhibition was reported as DC50 and IC50, respectively.

[4] = tested on: BaF3 cells expressing EGFR L858R-T790M-C797S; assay: Ba/F3 EGFR cell viability (CellTiter-Glo), L858R-T790M-C797S; type: cell-based; settings: Mus musculus, read-out: CTGlo (GI50)
From the text: as §1, §2

[5] = tested on: engineered triple mutant EGFR (L858R-T790M-C797S) BaF3 tumors; assay: BaF3 triple mutant EGFR allograft efficacy; type: in vivo, female BALB/c nude mice; settings: for efficacy on BaF3 tumor volume: Compound 1 or 2 at 20, 50, 100 mg/kg/day PO BID, osimertinib 25 mg/kg/day PO QD, 14 days
Procedure: Each Compound was administered BID (twice a day) orally (PO).
Tumor volume was measured twice weekly in two dimensions using calipers, and volume (mm^3) was calculated using the formula: V=0.5 a×b^2 where a and b are the long and short diameters of the tumor in mm, respectively. […] Treatment began on Day 0 with established subcutaneous BaF3 tumors with a mean tumor volume (MTV) of 108 mm^3.
Body weight and MTV were measured on a 2× weekly schedule. Statistical analysis was performed using a one-way ANOVA followed by Dunnett's multiple comparison test. Data are expressed as MTV±SEM.

[6] = tested on: BaF3 cells expressing EGFR L858R-T790M; assay: Ba/F3 EGFR cell viability (CellTiter-Glo), L858R-T790M; type: cell-based; settings: Mus musculus, read-out: CTGlo (GI50)
From the text: as §1, §2

[7] = tested on: BaF3 cells expressing EGFR L858R; assay: Ba/F3 EGFR cell viability (CellTiter-Glo), L858R; type: cell-based; settings: Mus musculus, read-out: CTGlo (GI50)
From the text: as §1, §2

[8] = molecular target: T2, EGFR L858R-T790M (Homo sapiens, UniProt P00533, L858R/T790M); assay: EGFR degradation, Total EGFR (L858R-specific) HTRF, NCI-H1975; type: cell-based; settings: 6 hours
T2 construct: NCI-H1975 (harboring EGFR heterozygous L858R-T790M mutations); host or cells: NCI-H1975
T2 sequence (P00533 25-1210 T790M/L858R): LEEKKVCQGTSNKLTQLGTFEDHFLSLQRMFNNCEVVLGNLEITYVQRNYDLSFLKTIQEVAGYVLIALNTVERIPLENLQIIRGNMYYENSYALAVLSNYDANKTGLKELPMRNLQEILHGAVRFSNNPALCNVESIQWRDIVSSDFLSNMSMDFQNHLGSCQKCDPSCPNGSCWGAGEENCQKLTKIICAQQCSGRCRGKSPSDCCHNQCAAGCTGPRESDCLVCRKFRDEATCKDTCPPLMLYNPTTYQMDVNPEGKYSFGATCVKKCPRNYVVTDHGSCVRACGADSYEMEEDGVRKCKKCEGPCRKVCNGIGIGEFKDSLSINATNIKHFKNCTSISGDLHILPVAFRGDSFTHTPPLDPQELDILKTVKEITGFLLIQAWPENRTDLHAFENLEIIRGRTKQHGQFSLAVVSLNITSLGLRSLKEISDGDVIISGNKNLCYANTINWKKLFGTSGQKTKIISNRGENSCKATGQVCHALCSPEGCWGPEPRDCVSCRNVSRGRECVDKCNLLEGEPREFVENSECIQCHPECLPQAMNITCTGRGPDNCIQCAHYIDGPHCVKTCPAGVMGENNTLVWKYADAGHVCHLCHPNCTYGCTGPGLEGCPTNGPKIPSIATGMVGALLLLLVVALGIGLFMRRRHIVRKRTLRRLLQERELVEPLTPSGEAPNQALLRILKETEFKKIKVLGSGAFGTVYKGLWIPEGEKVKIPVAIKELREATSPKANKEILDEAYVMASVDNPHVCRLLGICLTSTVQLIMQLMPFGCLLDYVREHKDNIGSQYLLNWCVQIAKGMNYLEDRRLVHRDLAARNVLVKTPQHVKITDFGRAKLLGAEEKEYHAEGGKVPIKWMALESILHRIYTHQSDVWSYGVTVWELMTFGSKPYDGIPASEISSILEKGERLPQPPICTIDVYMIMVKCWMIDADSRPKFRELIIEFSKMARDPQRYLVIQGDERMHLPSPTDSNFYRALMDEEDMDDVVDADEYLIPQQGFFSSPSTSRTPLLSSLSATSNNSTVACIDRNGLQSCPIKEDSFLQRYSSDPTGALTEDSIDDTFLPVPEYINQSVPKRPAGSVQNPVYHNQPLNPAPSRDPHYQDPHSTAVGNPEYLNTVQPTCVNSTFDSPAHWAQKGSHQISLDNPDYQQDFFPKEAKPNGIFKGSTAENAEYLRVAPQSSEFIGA
In short: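 FRET signal from HTRF kits measured phospho-EGFR at pY1068 or total EGFR after 6 h treatment at 37 °C. Compounds ran as 11-point half-log dilutions from 10 μM in duplicate, in cells in phenol red-free RPMI with 10% FBS. Concentrations giving 50% inhibition or degradation were reported as IC50 or DC50.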

[9] = molecular target: T3, pY1068 EGFR L858R-T790M (Homo sapiens, UniProt P00533, L858R/T790M); assay: Phospho-EGFR (pY1068) inhibition HTRF, NCI-H1975; type: cell-based; settings: 6 hours, read-out: pEGFR IC50
T3 construct: NCI-H1975 (harboring EGFR heterozygous L858R-T790M mutations); host or cells: NCI-H1975
T3 sequence (P00533 25-1210 T790M/L858R): as above
In short: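 6 h compound exposure, 37 °C/5% CO2, RPMI no-phenol red + 10% FBS. Dose range: 10 μM top, 11 pts, ½-log, duplicate. Readout HTRF FRET: pY1068 EGFR → IC50; total EGFR (pan-EGFR, A431) → DC50. No-compound cells = negative ctrl, no-cell wells = positive ctrl.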

[10] = H1975 (L858R-T790M), read-out: tEGFR DC50
[11] = Table 9A, NCI-H1975 cells, Total EGFR HTRF, read-out: H1975 EGFR DC50

O=C1CC[C@H](Nc2ccc(N3CCC(O)(CC(=O)N4CC5(C4)CN(c4ccc(-c6cc(F)c7c(c6)C(=O)N(C(C(=O)Nc6nccs6)c6ncn8c6CCC8)C7)cc4)C5)CC3)c(F)c2)C(=O)N1 (stereo partly drawn) [Compound 1, 2-(6,7-dihydro-5H-pyrrolo[1,2-c]imidazol-1-yl)-2-[6-[4-[2-[2-[1-[4-[[(3S)-2,6-dioxo-3-piperidyl]amino]-2-fluoro-phenyl]-4-hydroxy-4-piperidyl]acetyl]-2,6-diazaspiro[3.3]heptan-6-yl]phenyl]-4-fluoro-1-oxo-isoindolin-2-yl]-N-thiazol-2-yl-acetamide]
GI50 [1]: 44 nM
GI50 [2]: 21 nM
IC50 [3]: 10 nM
GI50 [4]: 7 nM
tumor regression ([5]; BaF3 EGFR-L858R-T790M-C797S allograft mouse model, oral dosing): 60%
efficacy on BaF3 tumor volume [5]: reduced tumor volume
GI50 [6]: 9 nM
GI50 [7]: 12 nM
DC50 [8, 10]: 8 nM
DC50 [8, 11]: < 50 nM
IC50 [9]: 9 nM

Cn1nc(N2CCC(=O)NC2=O)c2ccc([C@H]3CCN(CC(=O)N4CC5(C4)CN(c4ccc(-c6cc(F)c7c(c6)C(=O)N(C(C(=O)Nc6nccs6)c6ncn8c6CCC8)C7)cc4)C5)CC3(F)F)cc21 (stereo partly drawn) [Compound 2, 2-(6,7-dihydro-5H-pyrrolo[1,2-c]imidazol-1-yl)-2-[6-[4-[2-[2-[(4R)-4-[3-(2,4-dioxohexahydropyrimidin-1-yl)-1-methyl-indazol-6-yl]-3,3-difluoro-1-piperidyl]acetyl]-2,6-diazaspiro[3.3]heptan-6-yl]phenyl]-4-fluoro-1-oxo-isoindolin-2-yl]-N-thiazol-2-yl-acetamide]
GI50 [1]: 22 nM
GI50 [2]: 9 nM
IC50 [3]: 29 nM
GI50 [4]: 5 nM
efficacy on BaF3 tumor volume [5]: reduced tumor volume
GI50 [6]: 6 nM
GI50 [7]: 3 nM
DC50 [8, 10]: 12 nM
DC50 [8, 11]: < 50 nM
IC50 [9]: 14 nM

Source: patent US20240158418A1 (C4 Therapeutics, Inc., priority 2021, published 2024)
